Assay results reported in patent publication US10421779B2, “Carbazole compound having anti-virus activity” (priority 2016, dated 2019).
Read-outs that look alike come from different tables or passages of the source.

Tests used:
[1] = system: HCV genotype 1 b (HCV replicon system); assay: HCV replicon system genotype 1b, Renilla luciferase activity; type: cell-based; conditions: Hepatitis C virus, 72 h, HCV genotype 1b replicon, Rluc, 3 days, read-out: Replicon EC50 1b type
Procedure: (§1) From human liver cells (Huh7.5.1 cell) infected by hepatitis C virus, the anti-virus effects by the compound of the present invention were measured. From HCV genotype 1 b (HCV replicon system), genotype 2a (HCV cell culture system, HCVcc), and genotype 3a, the EC50 values were measured.
In order to measure the EC50 value from HCV genotype 1 b, the degrees of HCV replication inhibitory activities of an experimental compound were measured. The EC50 value was measured by treating the experimental compound with the HCV replicon systems (genotype 1 b) having Renilla luciferase (Rluc) genes and genotype 1 b non-structure genes under various concentration conditions to compare the activity degree of the luciferase after 3 days elapsed time with that of the control.

[2] = system: HCV genotype 3a (HCV replicon system); assay: HCV replicon system genotype 3a, firefly luciferase activity; type: cell-based; conditions: Hepatitis C virus, 72 h, HCV genotype 3a replicon, Fluc, 3 days, read-out: Replicon EC50 3a type
Procedure: as §1
In order to measure the EC50 value from genotype 3a, the value was measured through the luciferase activity. A HCV replicon system having firefly luciferase (Fluc) genes and genotype 3a non-structure genes was used. The HCV replicon system having the genes as described above was used to treat the experimental compound under various concentration conditions, and then 3 days later, the EC50 value was measured by comparing the luciferase activity with that of the control.

[3] = range limits given with own units (pM to nM)

| Structure (SMILES) | EC50 [1, 3] | EC50 [2, 3] | EC50 [1] | EC50 [2] |
| --- | --- | --- | --- | --- |
| COC(=O)N[C@@H](C(=O)N1CCC[C@H]1C(=O)Nc1ccc2c3ccc(NC(=O)[C@@H]4CCCN4C(=O)[C@H](NC(=O)OC)c4ccccc4)cc3n(CCCCCCCCCCN3CCN(C)CC3)c2c1)c1ccccc1 [Example 33, dimethyl ((1R,1′R)-((2S,2′S)-(((9-(10-(4-methylpiperazine-1-yl)decyl)-9H-carbazole-2,7-diyl)bis(azanediyl))bis(carbonyl))bis(pyrrolidine-2,1-diyl))bis(2-oxo-1-phenylethane-2,1-diyl))dicarbamate] | 100 to 1000 pM | 100 to 1000 pM |  |  |
| COC(=O)N[C@@H](C(=O)N1CCC[C@H]1C(=O)Nc1ccc2c3ccc(NC(=O)[C@@H]4CCCN4C(=O)[C@H](NC(=O)OC)c4ccccc4)cc3n(Cc3cccc([N+](=O)[O-])c3)c2c1)c1ccccc1 [Example 37, dimethyl ((1R,1′R)-((2S,2′S)-(((9-(3-nitrobenzyl)-9H-carbazole-2,7-diyl)bis(azanediyl))bis(carbonyl))bis(pyrrolidine-2,1-diyl))bis(2-oxo-1-phenylethane-2,1-diyl))dicarbamate] |  |  | 14.5 pM | 87.4 pM |
| COC(=O)N[C@@H](C(=O)N1CCC[C@H]1C(=O)Nc1ccc2c3ccc(NC(=O)[C@@H]4CCCN4C(=O)[C@H](NC(=O)OC)c4ccccc4)cc3n(Cc3cccc(NC(=O)C(C)(C)C)c3)c2c1)c1ccccc1 [Example 38, dimethyl ((1R,1′R)-((2S,2′S)-(((9-(3-pivalamidobenzyl)-9H-carbazole-2,7-diyl)bis(azanediyl))bis(carbonyl))bis(pyrrolidine-2,1-diyl))bis(2-oxo-1-phenylethane-2,1-diyl))dicarbamate] |  |  | 35.4 pM | 81.9 pM |
| COC(=O)N[C@@H](C(=O)N1CCC[C@H]1C(=O)Nc1ccc2c3ccc(NC(=O)[C@@H]4CCCN4C(=O)[C@H](NC(=O)OC)c4ccccc4)cc3n(CC3CCCC3)c2c1)c1ccccc1 [Example 47, dimethyl ((1R,1′R)-((2S,2′S)-(((9-(cyclopentylmethyl)-9H-carbazole-2,7-diyl)bis(azanediyl))bis(carbonyl))bis(pyrrolidine-2,1-diyl))bis(2-oxo-1-phenylethane-2,1-diyl))dicarbamate] |  |  | ~10 pM |  |
| COC(=O)N[C@@H](C(=O)N1CCC[C@H]1C(=O)Nc1ccc2c3ccc(NC(=O)[C@@H]4CCCN4C(=O)[C@H](NC(=O)OC)c4ccccc4)cc3n(CC3CCCCC3)c2c1)c1ccccc1 [Example 48, dimethyl ((1R,1′R)-((2S,2′S)-(((9-(cyclohexylmethyl)-9H-carbazole-2,7-diyl)bis(azanediyl))bis(carbonyl))bis(pyrrolidine-2,1-diyl))bis(2-oxo-1-phenylethane-2,1-diyl))dicarbamate] |  |  | 7.41 pM | 161 pM |
| COC(=O)N[C@@H](C(=O)N1CCC[C@H]1C(=O)Nc1ccc2c3ccc(NC(=O)[C@@H]4CCCN4C(=O)[C@H](NC(=O)OC)c4ccccc4)cc3n(CCc3ccccc3)c2c1)c1ccccc1 [Example 50, dimethyl ((1R,1′R)-((2S,2′S)-(((9-phenethyl-9H-carbazole-2,7-diyl)bis(azanediyl))bis(carbonyl))bis(pyrrolidine-2,1-diyl))bis(2-oxo-1-phenylethane-2,1-diyl))dicarbamate] |  |  | 4.34 pM | 183 pM |
| CCCCn1c2cc(NC(=O)[C@@H]3CCCN3C(=O)[C@@H](NC(=O)OC)C(C)C)ccc2c2ccc(-c3c[nH]c([C@@H]4CCCN4C(=O)[C@@H](NC(=O)OC)C(C)C)n3)cc21 [Example 53, methyl ((S)-1-((S)-2-((9-butyl-7-(2-((S)-1-((methoxycarbonyl)-L-valyl)pyrrolidine-2-yl)-1H-imidazole-4-yl)-9H-carbazole-2-yl)carbamoyl)pyrrolidine-1-yl)-3-methyl-1-oxobutane-2-yl)carbamate] |  |  | > 10000 pM |  |
